Experimental data published in patent publication US9060946B2, “Topical skin care formulations” (priority 2013, dated 2015).

Assays:
[1] = background; without the whiteness-preserving ingredients; cited from earlier work
skin [2] = conditions: known sunless tanning ingredients; acts on dead skin cells; cited from earlier work
skin [3] = experiment: Tanning of the skin after topical application; format: in vivo
From the text: The tan will appear once it reaches the skin's cellular level whether a person is in the light or in total darkness.
The tanning process will continue, in the sun, in the shade, or total darkness, regardless of the environmental conditions. […] Also, the tan can be maintained for longer periods of time by daily use of a maintenance formula containing 3 wt % CoQ10 and 3 wt % vanillin in a lime emulsion.

COC1=C(OC)C(=O)C(C/C=C(\C)CC/C=C(\C)CC/C=C(\C)CC/C=C(\C)CC/C=C(\C)CC/C=C(\C)CC/C=C(\C)CC/C=C(\C)CC/C=C(\C)CCC=C(C)C)=C(C)C1=O [CoQ10, coenzyme Q10]
color behaviour in aqueous emulsion products [1]: degrades the formulation into various shades of orange or brown

O=C(CO)[C@H](O)CO [erythrulose, D-erythrulose]
how long the tan color lasts (skin [2]): only a few days

COc1cc(C=O)ccc1O [vanillin]
tanning / color development continues for up to (skin [3]): up to 24 hours
color behaviour in aqueous emulsion products [1]: quickly degrades into various shades of brown
